{"source": "patent US8022235B2", "about": "“Compositions of phospholipid ether boronic acids and esters and methods for their synthesis and use” (Cellectar, Inc., priority 2007, dated 2011)", "key": {"[1]": {"tested_on": "Mammary MCF-7", "experiment": "Imaging and tissue distribution, tumor model", "assay_type": "in vivo, Rat", "conditions": "Adenocarcinoma"}, "[2]": {"tested_on": "Melanoma A-375", "experiment": "Imaging and tissue distribution, tumor model", "assay_type": "in vivo, Nude Mouse", "conditions": "Adenocarcinoma"}, "[3]": {"tested_on": "Liver CT-26", "experiment": "Imaging and tissue distribution, tumor model", "assay_type": "in vivo, Mouse xenograft", "conditions": "Colorectal adenocarcinoma"}, "[4]": {"tested_on": "Lung A-549 (NSCLC)", "experiment": "Imaging and tissue distribution, tumor model", "assay_type": "in vivo, SCID Mouse", "conditions": "Adenocarcinoma"}, "[5]": {"tested_on": "Retinoblastoma", "experiment": "Imaging and tissue distribution, tumor model", "assay_type": "in vivo, Spontaneous Mouse", "conditions": "Blastoma"}, "[6]": {"tested_on": "Colon LS-180", "experiment": "Imaging and tissue distribution, tumor model", "assay_type": "in vivo, Nude Mouse", "conditions": "Adenocarcinoma"}, "[7]": {"tested_on": "Adrenal H-295", "experiment": "Imaging and tissue distribution, tumor model", "assay_type": "in vivo, SCID Mouse", "conditions": "Adenocarcinoma"}, "[8]": {"experiment": "Toxicology studies of unlabeled NM404 in rabbits", "assay_type": "in vivo", "conditions": "for toxic effects: 14 days observation", "text": "(§1) In preparation for human clinical trials, unlabeled NM404 was subjected to independent (University of Buffalo Toxicology Research Center) acute toxicity evaluation at 1200 times the anticipated imaging mass dose in rats and rabbits. […] Due to its selective tumor uptake and retention properties in a variety of rodent tumor models and subsequent excellent safety profile in rats and rabbits, NM404 was selected to undergo initial human pharmacokinetic evaluation in non-small cell lung cancer (NSCLC) patients. Patients underwent planar gamma-camera scintigraphy after receiving an injection of ^131I-NM404 (<1 mCi).\nFormal toxicology studies of NM404 in male rats and rabbits were performed at the Toxicology Research Center of the State University of New York at Buffalo under the direction of Dr. Paul Kostyniak. Drug vehicle and drug product were provided to Dr. Kostyniak by Dr. Raymond Counsell of the University of Michigan for testing as described in the appended synopses of Study 27 and Study 28. […] Human safety studies of unlabeled NM404 were initiated in normal male humans at a mass of 10 times the anticipated imaging dose and about 21 times the anticipated therapy dose. […] This toxicology study was performed under GLP conditions.\nSubsequently, the inventors initiated a toxicology study of unlabeled NM404 in female rats and rabbits (Study 31 and Study 32) at the Toxicology Research Center at SUNY-Buffalo in order to expand the patient population to be studied in the NSCLC Phase 1 clinical trial. […] Human safety studies of unlabeled NM404 were initiated in normal female humans at a mass of 10 times the initially anticipated imaging dose and about 21 times the anticipated therapy dose. […] This toxicology study was performed under GLP conditions."}, "[9]": {"tested_on": "Walker-256 carcinosarcoma", "experiment": "Tissue distribution of radioactivity in Walker-256 carcinosarcoma model", "assay_type": "in vivo, rats", "procedure": "(§2) The avidity of PLE and APC analogs to localize in tumors was evaluated in several animal models. The PC-3 model represents a human tumor cell line that was used to determine the target (tumor) to non-target ratio of NM404 and NM412 in head to head comparison in order to select a candidate for an initial human pharmacokinetic trial in prostate cancer patients. The MatLyLu (Dunning R3327 rat) model, a rat prostate tumor line, was used specifically to screen 9 specific analogs prior to entering them into control for dosimetry and tumor-bearing animals for determining tumor/background ratios. Finally, the Walker-256 carcinosarcoma model was used for quantitative tissue distribution purposes.\n(§3) In order to expedite the screening process and minimize the number of tumor bearing animals utilized in multiple time point tissue distribution studies, new radioiodinated homologs were imaged by gamma camera scintigraphy in the rat Dunning […] (MAT LyLu strain) prostate cancer model. Thus, male Copenhagen rats received a subcutaneous injection of MAT LyLu cells (1×10^6 cells) in the thigh 10-14 days prior to injection of the radioiodinated PLE analogs (30-40 μCi) in 2% Tween-20 solution. Gamma camera images were obtained at multiple time points including 24 and 48 hours post injection. […] Tissue distribution of radioactivity in rats bearing Walker-256 carcinosarcoma was assessed at various time intervals following intravenous administration of the radioiodinated chain length homologs. The first group of compounds that was tested included three alkylphosphocholines: a shorter chain analog with seven carbons NM396 and two analogs with a longer chain length, 13 (NM397, C15 alkyl chain length) and 1 (NM404, C18 alkyl chain length)."}, "[10]": {"experiment": "Blood plasma kinetics", "set-up": "species or system rats", "conditions": "rat, in vivo"}, "[11]": {"tested_on": "animal tumor models", "experiment": "Imaging and biodistribution across animal tumor models (general statements)", "text": "See, for example, U.S. patent application Ser. Nos. 10/906,687, 11/177,740, 11/316,620 and 11/382,645. Due to deficiencies in metabolic phospholipase enzymes in the membranes of malignant tumor cells, the prevailing hypothesis for this specificity is that phospholipid ether analogs become trapped exclusively in tumor cell membranes because of their inability to become metabolized and eliminated by the cancerous cell. Thus, the differential clearance rates of phospholipid ethers from normal cells versus neoplastic tumor cells are responsible for this specificity.\nThe reason for the retention of PLE and analogs in cancer cells remains unknown. Without being held to any particular theory, however, the prevailing hypothesis, is that radioiodinated PLE and APC analogs become trapped in tumor cell membranes because of their inability to be metabolized and eliminated. On the other hand, such lipid molecules are metabolized and cleared by normal tissues, including the liver.\nThese PLE analogs are specifically designed to incorporate aromatic radioiodine in order to render the molecule stable towards in vivo deiodination."}, "[12]": {"tested_on": "non-small cell lung cancer (NSCLC)", "experiment": "Initial human pharmacokinetic evaluation, planar gamma-camera scintigraphy", "assay_type": "in vivo", "conditions": "relative to NM324", "text": "FIG. 6A-C images of lung cancer patient, posterior whole body planar nuclear medicine image (A) 4 days after iv administration of ^131I-NM404 (0.8 mCi) to a patient with non small cell lung cancer (6 cm dia., arrow). Lung tumor is easily detected in corresponding axial (B) and coronal (C) computed tomography (CT) scans;\nas §1"}, "[13]": {"tested_on": "TRAMP prostate", "experiment": "Imaging and tissue distribution, tumor model", "assay_type": "in vivo, Spontaneous mouse", "conditions": "Adenocarcinoma"}, "[14]": {"tested_on": "Prostate MatLyLu", "experiment": "Gamma camera scintigraphy screen in Dunning R3327 (MAT LyLu) prostate cancer model", "assay_type": "in vivo, Copenhagen rats", "procedure": "as §2, §3\nIn order to decrease liver uptake and prolong the plasma phase, the inventors examined 9 structural analogs of NM324 to identify agents that would display improved tumor-to-background tissue ratios with decreased liver uptake. The new PLE analogs were synthesized and radiolabeled with ^125I for initial image analysis in Copenhagen rats bearing Dunning R3327 prostate tumors. […] NM404 was therefore selected to undergo further imaging and biodistribution analysis in a variety of animal-tumor models."}}}
{"smiles": "C[N+](C)(C)CCOP(=O)([O-])OCCCCCCCCCCCCCCCCCCc1ccc(I)cc1", "note": "[NM404, 18-(p-iodophenyl)-octadecyl phosphocholine]", "values": [{"measurement": "Uptake", "setting": "[1]", "result": "Yes"}, {"measurement": "Uptake", "setting": "[2]", "result": "Yes"}, {"measurement": "Uptake", "setting": "[3]", "result": "Yes"}, {"measurement": "Uptake", "setting": "[4]", "result": "Yes"}, {"measurement": "Uptake", "setting": "[5]", "result": "Yes"}, {"measurement": "Uptake", "setting": "[6]", "result": "Yes"}, {"measurement": "Uptake", "setting": "[7]", "result": "Yes"}, {"measurement": "acute toxicity", "setting": "[8]; 1200 times the anticipated imaging mass dose", "result": "well tolerated and no acute toxicities were found"}, {"measurement": "toxic effects", "setting": "[8]; female rabbits, single dose 0.04 mg/kg, Study 32, GLP", "result": "No significant toxic effects"}, {"measurement": "toxic effects", "setting": "[8]; male rabbits, single dose 4 mg/kg, Study 28, GLP", "result": "No significant toxic effects"}, {"measurement": "peak radioactivity in the tumor", "setting": "[9]; 48 hours after administration", "result": "1.14±0.01 % of ID/g"}, {"measurement": "blood levels", "setting": "[9]; 120 hours", "result": "0.6±0.1 % of ID/g"}, {"measurement": "Uptake", "setting": "[9]; Carcinosarcoma", "result": "Yes"}, {"measurement": "time of peak radioactivity in the tumor", "setting": "[9]; after intravenous administration", "result": 48, "unit": "h"}, {"measurement": "total radioactivity levels in the thyroid", "setting": "[9]; considering the small mass of the gland", "result": "relatively low"}, {"measurement": "radioactivity in liver, kidney and duodenum compared with C15 analog 13", "setting": "[9]; rat, in vivo", "result": "significantly lower"}, {"measurement": "distribution phase half life", "setting": "[10]", "result": 4.86, "unit": "h"}, {"measurement": "elimination half life time in plasma", "setting": "[10]", "result": "roughly 209 hours"}, {"measurement": "tumor concentrations over time", "setting": "[11]; following administration", "result": "almost stable for many weeks"}, {"measurement": "elimination from normal tissue", "setting": "[11]; in vivo", "result": "eliminated from normal tissue within a few days"}, {"measurement": "tumor retention", "setting": "[11]; over 27 animal tumor models, every model and tumor type studied", "result": "tumor-selective retention"}, {"measurement": "tumor selectivity", "setting": "[11]; radioiodinated, 37 of 37 models investigated", "result": "remarkable tumor selectivity"}, {"measurement": "uptake into the tumor tissue", "setting": "[11]; up to", "result": "10-25 % of the injected dose"}, {"measurement": "liver and abdominal radioactivity levels", "setting": "[12]", "result": "much lower"}, {"measurement": "Uptake", "setting": "[13]", "result": "Yes"}, {"measurement": "tumor visualization by gamma camera scintigraphy", "setting": "[14]; 24 and 48 hours after injection", "result": "readily visualized"}, {"measurement": "liver activity", "setting": "[14]; 125I-labeled, initial image screen, compared with NM324", "result": "much lower liver activity"}, {"measurement": "Uptake", "setting": "[14]; Adenocarcinoma", "result": "Yes"}, {"measurement": "duration of tumor retention", "setting": "[14]; initial screen, FIG. 7", "result": "over 20 days"}]}
